system: ddY-strain male mice; test: Acute Toxicity Test (minimum lethal dose, oral); format: in vivo; conditions: seven days after administration
Procedure: Test compounds were orally administered to groups of ddY-strain male mice weighing 20±1 g, each group consisting of three mice. Seven days after the administration, minimum lethal dose (MLD) of each compound was determined by observing the mortality.

| SMILES | MLD (minimum lethal dose) [mg/kg] |
| --- | --- |
| CCCn1c(=O)c2c(nc(/C=C/c3ccc(OCC)c(OCC)c3)n2C)n(CCC)c1=O [Compound 55, (E)-8-(3,4-Diethoxystyryl)-7-methyl-1,3-dipropylxanthine] | > 100 |
| CCCn1c(=O)c2[nH]c(/C=C/c3ccc(OC)c(Br)c3)nc2n(CCC)c1=O [Compound 56, (E)-8-(3-Bromo-4-methoxystyryl)-1,3-dipropylxanthine] | > 100 |
| CCCn1c(=O)c2c(nc(/C=C/c3ccc(OC)c(Br)c3)n2C)n(CCC)c1=O [Compound 57, (E)-8-(3-Bromo-4-methoxystyryl)-7-methyl-1,3-dipropylxanthine] | > 100 |
| CCCn1c(=O)c2[nH]c(/C=C/c3cc(OC)c(OC)cc3Br)nc2n(CCC)c1=O [Compound 58, (E)-8-(2-Bromo-4,5-dimethoxystyryl)-1,3-dipropylxanthine] | > 300 |
| CCCn1c(=O)c2c(nc(/C=C/c3cc(OC)c(OC)cc3Br)n2C)n(CCC)c1=O [Compound 59, (E)-8-(2-Bromo-4,5-dimethoxystyryl)-7-methyl-1,3-dipropylxanthine] | > 300 |
| CCCn1c(=O)c2[nH]c(/C=C/c3cc(Br)c(OC)c(OC)c3)nc2n(CCC)c1=O [Compound 60, (E)-8-(3-Bromo-4,5-dimethoxystyryl)-1,3-dipropylxanthine] | > 300 |
| CCCn1c(=O)c2c(nc(/C=C/c3cc(Br)c(OC)c(OC)c3)n2C)n(CCC)c1=O [Compound 61, (E)-8-(3-Bromo-4,5-dimethoxystyryl)-7-methyl-1,3-dipropylxanthine] | > 100 |
| CCCn1c(=O)c2[nH]c(/C=C/c3ccc(OC)c4ccccc34)nc2n(CCC)c1=O [Compound 62, (E)-8-[2-(4-Methoxynaphthyl)vinyl]-1,3-dipropylxanthine] | > 100 |
| CCCn1c(=O)c2c(nc(/C=C/c3ccc(OC)c4ccccc34)n2C)n(CCC)c1=O [Compound 63, (E)-8-[2-(4-Methoxynaphthyl)vinyl]-7-methyl-1,3-dipropylxanthine] | > 300 |
| CCCn1c(=O)c2c(nc(/C=C/c3ccc(OC)c(O)c3)n2C)n(CCC)c1=O [Compound 64, (E)-8-(3-Hydroxy-4-methoxystyryl)-7-methyl-1,3-dipropylxanthine] | > 100 |
| CCCn1c(=O)c2c(nc(/C=C\c3ccc(OC)c(OC)c3)n2C)n(CCC)c1=O [Compound 65, (Z)-8-(3,4-Dimethoxystyryl)-7-methyl-1,3-dipropylxanthine] | > 300 |
| CCCn1c(=O)c2c(nc(/C=C/c3ccc(OC)c(OC)c3)n2CC)n(CCC)c1=O [Compound 66, (E)-8-(3,4-Dimethoxystyryl)-7-ethyl-1,3-dipropylxanthine] | > 300 |
| C#CCn1c(/C=C/c2ccc(OC)c(OC)c2)nc2c1c(=O)n(CCC)c(=O)n2CCC [Compound 67, (E)-8-(3,4-Dimethoxystyryl)-7-propargyl-1,3-dipropylxanthine] | > 300 |
| CCCn1c(=O)c2c(nc(/C=C/c3ccc(OCOC)c(OCOC)c3)n2C)n(CCC)c1=O [Compound 68, (E)-8-[3,4-Bis(methoxymethoxy)styryl]-7-methyl-1,3-dipropylxanthine] | > 100 |
| C=CCn1c(=O)c2[nH]c(/C=C/c3ccc(OC)c(OC)c3)nc2n(CC=C)c1=O [Compound 69, (E)-1,3-Diallyl-8-(3,4-dimethoxystyryl)xanthine] | > 100 |
| CCCn1c(=O)c2[nH]c(/C=C/c3ccc(OC)c(OC)c3)nc2n(CCC)c1=S [Compound 71, (E)-8-(3,4-Dimethoxystyryl)-1,3-dipropyl-2-thioxanthine] | > 100 |
| CCCn1c(=O)c2c(nc(/C=C/c3ccc(OC)c(OC)c3)n2C)n(CCC)c1=S [Compound 72, (E)-8-(3,4-Dimethoxystyryl)-7-methyl-1,3-dipropyl-2-thioxanthine] | > 300 |
| CCn1c(=O)c2[nH]c(/C=C/c3ccc(OC)c(OC)c3)nc2n(CC)c1=O [Compound 73, (E)-8-(3,4-Dimethoxystyryl)-1,3-diethylxanthine] | > 300 |
| CCn1c(=O)c2[nH]c(/C=C/c3cccc(OC)c3OC)nc2n(CC)c1=O [Compound 75, (E)-8-(2,3-Dimethoxystyryl)-1,3-diethylxanthine] | > 300 |
| CCn1c(=O)c2c(nc(/C=C/c3cccc(OC)c3OC)n2C)n(CC)c1=O [Compound 76, (E)-8-(2,3-Dimethoxystyryl)-1,3-diethyl-7-methylxanthine] | > 300 |
| CCn1c(=O)c2[nH]c(/C=C/c3ccc(OC)cc3OC)nc2n(CC)c1=O [Compound 77, (E)-8-(2,4-Dimethoxystyryl)-1,3-diethylxanthine] | > 100 |
| CCn1c(=O)c2[nH]c(/C=C/c3ccc(OC)c(OC)c3OC)nc2n(CC)c1=O [Compound 79, (E)-1,3-Diethyl-8-(2,3,4-trimethoxystyryl)xanthine] | > 300 |
| CCn1c(=O)c2[nH]c(/C=C/c3ccc(OC)c(C)c3C)nc2n(CC)c1=O [Compound 81, (E)-1,3-Diethyl-8-(4-methoxy-2,3-dimethylstyryl)xanthine] | > 300 |

| SMILES | MLD (minimum lethal dose) [mg/kg] |
| --- | --- |
| CCn1c(=O)c2[nH]c(/C=C/c3cc(C)c(OC)cc3C)nc2n(CC)c1=O [Compound 83, (E)-1,3-Diethyl-8-(4-methoxy-2,5-dimethylstyryl)xanthine] | > 300 |
| CCn1c(=O)c2c(nc(/C=C/c3cc(C)c(OC)cc3C)n2C)n(CC)c1=O [Compound 84, (E)-1,3-Diethyl-8-(4-methoxy-2,5-dimethylstyryl)-7-methylxanthine] | > 300 |
| CCn1c(=O)c2[nH]c(/C=C/c3ccc(OC)c(C)c3OC)nc2n(CC)c1=O [Compound 85, (E)-8-(2,4-Dimethoxy-3-methylstyryl)-1,3-diethylxanthine] | > 300 |
| CCn1c(=O)c2c(nc(/C=C/c3ccc(OC)c(C)c3OC)n2C)n(CC)c1=O [Compound 86, (E)-8-(2,4-Dimethoxy-3-methylstyryl)-1,3-diethyl-7-methylxanthine] | > 300 |
| CCn1c(=O)c2[nH]c(/C=C/c3ccc4c(c3)OCO4)nc2n(CC)c1=O [Compound 87, (E)-1,3-Diethyl-8-(3,4-methylenedioxystyryl)xanthine] | > 300 |
| CCn1c(=O)c2c(nc(/C=C/c3ccc4c(c3)OCO4)n2C)n(CC)c1=O [Compound 88, (E)-1,3-Diethyl-7-methyl-8-(3,4-methylenedioxystyryl)xanthine] | > 300 |
| CCn1c(=O)c2[nH]c(/C=C/c3ccc4c(c3)OCCO4)nc2n(CC)c1=O [Compound 89, (E)-8-[2-(1,4-Benzodioxan-6-yl)vinyl]-1,3-diethylxanthine] | > 100 |
| CCn1c(=O)c2c(nc(/C=C/c3ccc4c(c3)OCCO4)n2C)n(CC)c1=O [Compound 90, (E)-8-[2-(1,4-Benzodioxan-6-yl)vinyl]-1,3-diethyl-7-methylxanthine] | > 300 |
| COc1ccc(/C=C/c2nc3c(=O)n(C)c(=O)n(C)c3[nH]2)c(OC)c1OC [Compound 91, (E)-8-(2,3,4-Trimethoxystyryl)theophylline] | > 300 |
| COc1ccc(/C=C/c2nc3c(c(=O)n(C)c(=O)n3C)n2C)c(OC)c1OC [Compound 92, (E)-8-(2,3,4-Trimethoxystyryl)caffeine] | > 300 |
| COc1ccc(/C=C/c2nc3c([nH]2)c(=O)n(C)c(=O)n3C)c(C)c1C [Compound 93, (E)-8-(4-Methoxy-2,3-dimethylstyryl)theophylline] | > 100 |
| COc1ccc(/C=C/c2nc3c(c(=O)n(C)c(=O)n3C)n2C)c(C)c1C [Compound 94, (E)-8-(4-Methoxy-2,3-dimethylstyryl)caffeine] | > 100 |
| Cn1c(=O)c2[nH]c(/C=C/c3ccc4c(c3)OCO4)nc2n(C)c1=O [Compound 95, (E)-8-(3,4-Methylenedioxystyryl)theophylline] | > 300 |
| Cn1c(=O)c2c(nc(/C=C/c3ccc4c(c3)OCO4)n2C)n(C)c1=O [Compound 96, (E)-8-(3,4-Methylenedioxystyryl)caffeine] | > 300 |
| COc1cccc(/C=C/c2nc3c(=O)n(C)c(=O)n(C)c3[nH]2)c1OC [Compound 97, (E)-8-(2,3-Dimethoxystyryl)theophylline] | > 100 |
| COc1cccc(/C=C/c2nc3c(c(=O)n(C)c(=O)n3C)n2C)c1OC [Compound 98, (E)-8-(2,3-Dimethoxystyryl)caffeine] | > 300 |
| COc1ccc(/C=C/c2nc3c([nH]2)c(=O)n(C)c(=O)n3C)c(OC)c1 [Compound 99, (E)-8-(2,4-Dimethoxystyryl)theophylline] | > 100 |
| COc1ccc(/C=C/c2nc3c(c(=O)n(C)c(=O)n3C)n2C)c(OC)c1 [Compound 100, (E)-8-(2,4-Dimethoxystyryl)caffeine] | > 300 |
| COc1cc(C)c(/C=C/c2nc3c([nH]2)c(=O)n(C)c(=O)n3C)cc1C [Compound 101, (E)-8-(4-Methoxy-2,5-dimethylstyryl)theophylline] | > 100 |
| COc1cc(C)c(/C=C/c2nc3c(c(=O)n(C)c(=O)n3C)n2C)cc1C [Compound 102, (E)-8-(4-Methoxy-2,5-dimethylstyryl)caffeine] | > 100 |
| COc1ccc(/C=C/c2nc3c([nH]2)c(=O)n(C)c(=O)n3C)c(OC)c1C [Compound 103, (E)-8-(2,4-Dimethoxy-3-methylstyryl)theophylline] | > 100 |
| COc1ccc(/C=C/c2nc3c(c(=O)n(C)c(=O)n3C)n2C)c(OC)c1C [Compound 104, (E)-8-(2,4-Dimethoxy-3-methylstyryl)caffeine] | > 100 |

Reference: patent publication US5543415A, “Antidepressants” (Kyowa Hakko Kogyo Co., Ltd., priority 1992, dated 1996)
